Read-outs that look alike come from different tables or passages of the source.

Assay [1] addresses GSK3β kinase (Homo sapiens (Human), UniProt P49841). Put plainly: GSK3β kinase assay (Ser/Thr 09 peptide Z-lyte, FRET).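 Note: Coumarin/fluorescein emission ratio converted to percent phosphorylation against unphosphorylated (0%) and phosphorylated (100%) controls, 1 h compound incubation at room temperature, 11-point threefold dilutions from 10 µM, run in duplicate.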 Particulars: method text calls the value IC50. Type of assay: biochemical.
Assay [2] deals with IL-6. As to the kind of experiment: IL-6 inhibition in LPS-stimulated human peripheral blood mononuclear cells (HTRF). Format: cell-based. Particulars: Homo sapiens, PBMC; for inhibition at 10 µM: read-out: percent value in parentheses below EC50 >10; for EC50: IL-6, LPS-stimulated huPBMCs, HTRF. In outline: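 EC50 from a 4-parameter fit of DMSO-normalized HTRF (665/620 nm) IL-6 signal, duplicates. Compound was added to fresh human PBMCs in 1% FBS RPMI for 2 h (top 10 μM, 3-fold, 0.25% DMSO) before 22 h stimulation with LPS at 50 ng/mL, 37 °C.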
(In TR-FRET formats the signal depends on donor and acceptor labels being close together.)

The test system of assay [3] is SW480 colon carcinoma cells. Put plainly: Cell viability assay (CellTiter-Glo) in SW480 cells.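 Note: SW480 cells stably carrying an Sp5-luciferase TCF/LEF reporter, luminescent ATP signal as viability measure, DMSO-treated cells as control.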 Format: cell-based, human.
Assay [4] deals with Tau phosphorylation at Ser396 (pSer396), SH-SY5Y cells. Put plainly: Tau phosphorylation at Ser396 (pSer396) in SH-SY5Y cells, ELISA/western blot.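 Note: cell lysates probed for reduced Tau pSer396 via ELISA (colorimetric) or western blot (chemiluminescence), both with one shared pSer396 antibody, EC50 for lowering phosphorylation.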 Type of assay: cell-based, human. Particulars: Homo sapiens. For orientation: An ELISA detects its analyte on a solid surface through an enzyme-linked reagent.
Assay [5] relates to LL29 cells (primary human fibroblasts derived from IPF patients), α-smooth muscle actin. Put plainly: Inhibition of fibrotic process: αSMA in TGF-β1-treated primary human fibroblasts from IPF patients (LL29 cells). Type of assay: cell-based. As to conditions: Homo sapiens, Fibroblast; for EC50: 96 h, % αSMA-positive LL29 cells, TGF-β1 20 ng/mL, 4 days; for inhibition at 10 µM: read-out: percent inhibition at 10 μM. In outline:
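Read-out is the percentage of αSMA-positive cells by high-content imaging, excluding SYTOX green-positive dead/apoptotic cells, normalized to TGF-β1-only wells on the same plate. LL29 cells were exposed for 4 days at 37 °C to 20 ng/mL TGF-β1 plus 11-point, 2-fold compound dilutions in 0.1% DMSO.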

The mark [6] stands for this setting: Homo sapiens, 96 h; cell viability, SW480 cells, four days, CellTiter-Glo.
Where [7] appears, read: Homo sapiens, SW480; read-out: percent inhibition at 10 μM.
Setting [8] is: SH-SY5Y cells, overnight (16-18 h), read-out: pSer396 Tau EC50.
The mark [9] stands for this setting: Homo sapiens, SW480, read-out: percent inhibition at 10 μM.
The mark [10] stands for this setting: SH-SY5Y, read-out: pSer396 Tau EC50 (μM).

GSK3β kinase, sequence (P49841 whole entry): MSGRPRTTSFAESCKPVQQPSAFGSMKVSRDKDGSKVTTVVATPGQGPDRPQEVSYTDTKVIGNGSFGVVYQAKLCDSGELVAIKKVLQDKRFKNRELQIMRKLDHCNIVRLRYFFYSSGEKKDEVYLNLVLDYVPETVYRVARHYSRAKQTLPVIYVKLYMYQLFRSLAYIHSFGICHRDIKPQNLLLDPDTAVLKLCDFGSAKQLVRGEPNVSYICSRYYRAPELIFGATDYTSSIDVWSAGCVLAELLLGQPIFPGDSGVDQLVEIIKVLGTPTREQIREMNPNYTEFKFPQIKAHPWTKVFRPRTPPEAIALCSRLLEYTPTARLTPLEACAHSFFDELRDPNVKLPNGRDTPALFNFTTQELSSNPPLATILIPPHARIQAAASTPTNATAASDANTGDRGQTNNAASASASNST

For `Cc1nnc(-c2cc(F)c3cnc(NC(=O)N(C)C4CCN(C)CC4)cc3c2)s1` [Compound 227, 3-(8-Fluoro-6-(5-methyl-1,3,4-thiadiazol-2-yl)isoquinolin-3-yl)-1-methyl-1-(1-methylpiperidin-4-yl)urea], the EC50 (commonly the midpoint of the concentration-response curve) in assay [1] is 4500 nM; in assay [2] it was > 10000 nM; in assay [3] (setting [6]), > 10000 nM; in assay [4] (setting [8]), 4.5 µM. Besides, the inhibition at 10 µM came out at 4.9% in assay [2] and 1.9% in assay [3] (setting [7]).
Take `CN1CCC(N(C)C(=O)Nc2cc3cc(-c4cn(C)nn4)cc(F)c3cn2)CC1` [Compound 228, 3-(8-Fluoro-6-(1-methyl-1H-1,2,3-triazol-4-yl)isoquinolin-3-yl)-1-methyl-1-(1-methylpiperidin-4-yl)urea]: the EC50 in assay [5] was 9980 nM; in assay [1], 255 nM; in assay [2] it was > 10000 nM; in assay [3] (setting [6]), > 10000 nM; in assay [4] (setting [8]), 6.4 µM. Also, the inhibition at 10 µM in assay [2] stood at 3.3%.
With `Cc1nnc(-c2ccc3cnc(NC(=O)N4C5CCC4CN(C)C5)cc3c2)s1` [Compound 108, 3-Methyl-N-(6-(5-methyl-1,3,4-thiadiazol-2-yl)isoquinolin-3-yl)-3,8-diazabicyclo[3.2.1]octane-8-carboxamide], the EC50 in assay [5] was > 10000 nM; in assay [1], 671 nM; in assay [2], > 10000 nM; in assay [3] (setting [6]), > 10000 nM; in assay [4] (setting [10]) it was > 10 µM. The inhibition at 10 µM in assay [5] came to 18.2%; in assay [2], 4.1%; in assay [3] (setting [9]) it was 7.8%.
Consider `Cc1nnc(-c2ccc3cnc(NC(=O)N4[C@@H]5CC[C@H]4C[C@H](NCCC(F)(F)F)C5)cc3c2)s1` [Compound 153, (1R,5S)-N-(6-(5-Methyl-1,3,4-thiadiazol-2-yl)isoquinolin-3-yl)-3-exo-((3,3,3-trifluoropropyl)amino)-8-azabicyclo[3.2.1]octane-8-carboxamide], for which the EC50 in assay [5] was > 10000 nM; in assay [1], 532 nM; in assay [2], > 10000 nM; in assay [3] (setting [6]), > 10000 nM; in assay [4] (setting [10]), > 10 µM. The inhibition at 10 µM is 9% in assay [5], 9% in assay [2] and 0% in assay [3] (setting [9]).
As to `Cc1nnc(-c2ccc3cnc(NC(=O)[C@H]4CC[C@H](N(C)C)CC4)cc3c2)s1` [Compound 22, trans-4-(Dimethylamino)-N-(6-(5-methyl-1,3,4-thiadiazol-2-yl)isoquinolin-3-yl)cyclohexane-1-carboxamide], the EC50 was 602 nM in assay [5]; 22 nM in assay [1]; 6660 nM in assay [2]; 2050 nM in assay [3] (setting [6]); 0.126 µM in assay [4] (setting [8]).
`Cc1ncc(-c2ccc3cnc(NC(=O)N(C)C4CCN(C)CC4)cc3c2)o1` [Compound 231, 1-Methyl-3-(6-(2-methyloxazol-5-yl)isoquinolin-3-yl)-1-(1-methylpiperidin-4-yl)urea]: the 50% effective concentration (EC50) in assay [5] was 2950 nM; in assay [1] it was 2820 nM; in assay [2], 8280 nM; in assay [3] (setting [6]), > 10000 nM. Besides, the inhibition at 10 µM in assay [3] (setting [7]) worked out at 41.6%.
For `CN1CCC(N(C)C(=O)Nc2cc3cc(-c4cnn(C)c4)cc(F)c3cn2)CC1` [Compound 230, 3-(8-Fluoro-6-(1-methyl-1H-pyrazol-4-yl)isoquinolin-3-yl)-1-methyl-1-(1-methylpiperidin-4-yl)urea], the EC50 is 6330 nM in assay [5], 3640 nM in assay [1], > 10000 nM in assay [2] and > 10000 nM in assay [3] (setting [6]). For the same molecule, the inhibition at 10 µM in assay [2] was 36.6%; in assay [3] (setting [7]) it was 31.9%.
As for `COCCN[C@H]1CC[C@H](C(=O)Nc2cc3cc(-c4cnc(C)o4)ccc3cn2)CC1` [Compound 106, trans-4-((2-Methoxyethyl)amino)-N-(6-(2-methyloxazol-5-yl)isoquinolin-3-yl)cyclohexane-1-carboxamide], the concentration giving a half-maximal response (EC50) in assay [5] stood at 707 nM; in assay [1], 320 nM; in assay [2], 1110 nM; in assay [3] (setting [6]), 2960 nM; in assay [4] (setting [8]), 0.323 µM.
Regarding `Cc1ncc(-c2ccc3cnc(NC(=O)[C@H]4CC[C@H](NCCF)CC4)cc3c2)o1` [Compound 155, trans-4-((2-fluoroethyl)amino)-N-(6-(2-methyloxazol-5-yl)isoquinolin-3-yl) cyclohexane-1-carboxamide], the half-maximal effective concentration (EC50) in assay [5] was determined as 1060 nM; in assay [1] it was 668 nM; in assay [2], 1060 nM; in assay [3] (setting [6]), 807 nM; in assay [4] (setting [8]), 0.384 µM.
In the case of `COCCN[C@H]1CC[C@H](C(=O)Nc2cc3cc(-c4cnn(C)c4)ccc3cn2)CC1` [Compound 196, trans-4-((2-Methoxyethyl)amino)-N-(6-(1-methyl-1H-pyrazol-4-yl)isoquinolin-3-yl)cyclohexane-1-carboxamide], the EC50 in assay [5] was found to be 184 nM; in assay [1], 194 nM; in assay [2] it was 1210 nM; in assay [3] (setting [6]) it was 6110 nM.
For `Cc1cn2c(n1)CN(C(=O)Nc1cc3cc(-c4nnc(C)s4)ccc3cn1)CC2` [Compound 58, 2-Methyl-N-(6-(5-methyl-1,3,4-thiadiazol-2-yl)isoquinolin-3-yl)-5,6-dihydroimidazo[1,2-a]pyrazine-7(8H)-carboxamide], the EC50 in assay [5] was found to be 788 nM; in assay [1], 7 nM; in assay [2] it was 9570 nM; in assay [3] (setting [6]), 547 nM; in assay [4] (setting [8]), 0.058 µM.
In the case of `C[C@@H]1CN(C(=O)Nc2cc3cc(-c4cnn(C)c4)ccc3cn2)CCN1C` [Compound 67, (R)-3,4-Dimethyl-N-(6-(1-methyl-1H-pyrazol-4-yl)isoquinolin-3-yl) piperazine-1-carboxamide], the concentration for a half-maximal effect (EC50) in assay [5] is > 10000 nM; in assay [1], 1870 nM; in assay [2], > 10000 nM; in assay [3] (setting [6]) it was 3990 nM; in assay [4] (setting [8]), > 10 µM. Besides, the inhibition at 10 µM came out at 5.2% in assay [5] and 29.6% in assay [2].
For `CN1CC2CCC(C1)N2C(=O)Nc1cc2cc(-c3cnn(C)c3)ccc2cn1` [Compound 61, 3-Methyl-N-(6-(1-methyl-1H-pyrazol-4-yl)isoquinolin-3-yl)-3,8-diazabicyclo[3.2.1]octane-8-carboxamide], the EC50 in assay [5] is 2770 nM; in assay [1], 9210 nM; in assay [2], > 10000 nM; in assay [3] (setting [6]), > 10000 nM; in assay [4] (setting [10]) it was > 10 µM. In addition, the inhibition at 10 µM in assay [2] was determined as 5.2%; in assay [3] (setting [9]), 13.1%.
Consider `Cc1nnc(-c2ccc3cnc(NC(=O)N4[C@@H]5CC[C@H]4C[C@@H](NCCC(F)(F)F)C5)cc3c2)s1` [Compound 195, (1R,5S)-cis-N-(6-(5-methyl-1,3,4-thiadiazol-2-yl)isoquinolin-3-yl)-3-((3,3,3-trifluoropropyl)amino)-8-azabicyclo[3.2.1]octane-8-carboxamide], for which the 50% effective concentration (EC50) in assay [5] was > 10000 nM; in assay [1], 1250 nM; in assay [2], > 10000 nM; in assay [3] (setting [6]), > 10000 nM; in assay [4] (setting [10]), > 10 µM. Moreover, the inhibition at 10 µM in assay [5] is 23.4%; in assay [2] it was 23.4%; in assay [3] (setting [9]) it was 13%.

(Values after patent publication US10604514B2, “6-(5-membered heteroaryl)isoquinolin-3-yl carboxamides and preparation and use thereof” (Samumed, LLC, priority 2017, dated 2020).)
